Consider 2 compounds from ChEMBL document CHEMBL4387741, “Optimization of novel reversible Bruton's tyrosine kinase inhibitors identified using Tethering-fragment-based screens” (Bioorg Med Chem, 2019).

For assay [1], the target named is Bone morphogenetic protein receptor type-1A (Homo sapiens) (UniProt P36894). Put plainly: Inhibition of wild-type human partial length BMPR1A (Q214 to I532 residues) expressed in bacterial expression system at 1 uM by Kinomescan method relative to control.
For assay [2], the system named is Serine/threonine-protein kinase B-raf (Homo sapiens), P15056 [V600E]. The assay is described as follows: Inhibition of human partial length BRAF V600E mutant (S429 to E741 residues) expressed in mammalian expression system at 1 uM by Kinomescan method relative to control.
Assay [3] concerns the target Calcium/calmodulin-dependent protein kinase type II subunit beta (Homo sapiens) (UniProt Q13554). The assay is described as follows: Inhibition of wild-type human partial length CAMK2B (M1 to Q380 residues) expressed in bacterial expression system at 1 uM by Kinomescan method relative to control.
Assay [4] addresses Epithelial discoidin domain-containing receptor 1 (Homo sapiens) (UniProt Q08345). The assay is described as follows: Inhibition of wild-type human partial length DDR1 (R565 to V876 residues) expressed in bacterial expression system at 1 uM by Kinomescan method relative to control.
Assay [5] addresses Ephrin type-A receptor 2 (Homo sapiens) (UniProt P29317). The assay is described as follows: Inhibition of wild-type human partial length EPHA2 (T593 to V891 residues) expressed in bacterial expression system at 1 uM by Kinomescan method relative to control.
Assay [6] has as its target Tyrosine-protein kinase JAK1 (Homo sapiens) (UniProt P23458). The assay is described as follows: Inhibition of wild-type human partial length JAK1 JH2 pseudokinase domain (R537 to D855 residues) expressed in mammalian expression system at 1 uM by Kinomescan method relative to control.
The target of assay [7] is Serine/threonine-protein kinase LATS1 (Homo sapiens) (UniProt O95835). Put plainly: Inhibition of wild-type human partial length LATS1 (Q678 to V1130 residues) expressed in bacterial expression system at 1 uM by Kinomescan method relative to control.
Assay [8] concerns the target Serine/threonine-protein kinase Nek11 (Homo sapiens) (UniProt Q8NG66). The assay is described as follows: Inhibition of wild-type human partial length NEK11 (M1 to E313 residues) expressed in mammalian expression system at 1 uM by Kinomescan method relative to control.
Assay [9] deals with Serine/threonine-protein kinase PAK 6 (Homo sapiens) (UniProt Q9NQU5). Put plainly: Inhibition of wild-type human partial length PAK6 (N298 to C681 residues) expressed in bacterial expression system at 1 uM by Kinomescan method relative to control.
For assay [10], the target named is Ribosomal protein S6 kinase alpha-5 (Homo sapiens) (UniProt O75582). Put plainly: Inhibition of wild-type human partial length N-terminal RPS6KA5 kinase domain 1 expressed in bacterial expression system at 1 uM by Kinomescan method relative to control.
Assay [11] has the same target. The assay is described as follows: Inhibition of wild-type human partial length C-terminal RPS6KA5 kinase domain 2 (V390 to T718 residues) expressed in bacterial expression system at 1 uM by Kinomescan method relative to control.
The target of assay [12] is STE20/SPS1-related proline-alanine-rich protein kinase (Homo sapiens) (UniProt Q9UEW8). Put plainly: Inhibition of wild-type human partial length STK39 (P43 to I357 residues) expressed in mammalian expression system at 1 uM by Kinomescan method relative to control.
For assay [13], the target named is Non-receptor tyrosine-protein kinase TYK2 (Homo sapiens) (UniProt P29597). Put plainly: Inhibition of wild-type human partial length TYK2 JH1 catalytic domain (V877 to C1187 residues) expressed in mammalian expression system at 1 uM by Kinomescan method relative to control.
For assay [14], the system named is Tyrosine-protein kinase ABL1 (Homo sapiens), P00519 [F317I]. Put plainly: Inhibition of human non-phosphorylated ABL1 F317I mutant (S229 to K512 residues) expressed in mammalian expression system at 10 uM by Kinomescan method relative to control.
For assay [15], the target named is Tyrosine-protein kinase ABL1 (Homo sapiens) (UniProt P00519). Put plainly: Inhibition of wild-type human phosphorylated ABL1 (S229 to K512 residues) expressed in mammalian expression system at 10 uM by Kinomescan method relative to control.
The target in assay [16] is Ankyrin repeat and protein kinase domain-containing protein 1 (Homo sapiens) (UniProt Q8NFD2). The assay is described as follows: Inhibition of wild-type human partial length ANKK1 (M1 to A305 residues) expressed in mammalian expression system at 10 uM by Kinomescan method relative to control.
In assay [17] the target is Calcium/calmodulin-dependent protein kinase kinase 1 (Homo sapiens) (UniProt Q8N5S9). Put plainly: Inhibition of wild-type human partial length CAMKK1 (R65 to E414 residues) expressed in bacterial expression system at 10 uM by Kinomescan method relative to control.
The target of assay [18] is Dual specificity protein kinase CLK4 (Homo sapiens) (UniProt Q9HAZ1). Put plainly: Inhibition of wild-type human partial length CLK4 (R135 to K481 residues) expressed in bacterial expression system at 10 uM by Kinomescan method relative to control.
In assay [19] the test system is Receptor-type tyrosine-protein kinase FLT3 (Homo sapiens), P36888 [UNDEFINED MUTATION]. The assay is described as follows: Inhibition of human partial length FLT3 ITD/D835V double mutant expressed in bacterial expression system at 10 uM by Kinomescan method relative to control.
Assay [20] concerns the target G protein-coupled receptor kinase 3 (Homo sapiens) (UniProt P35626). The assay is described as follows: Inhibition of wild-type human full length GRK3 (M1 to L688 residues) expressed in mammalian expression system at 10 uM by Kinomescan method relative to control.
Assay [21] concerns the target Inhibitor of nuclear factor kappa-B kinase subunit beta (Homo sapiens) (UniProt O14920). The assay is described as follows: Inhibition of wild-type human full length IKK-beta (M1 to S756 residues) expressed in mammalian expression system at 10 uM by Kinomescan method relative to control.
The target in assay [22] is MAP/microtubule affinity-regulating kinase 4 (Homo sapiens) (UniProt Q96L34). The assay is described as follows: Inhibition of wild-type human partial length MARK4 (K29 to G340 residues) expressed in bacterial expression system at 10 uM by Kinomescan method relative to control.
The subject of assay [23] is Phosphatidylinositol 4,5-bisphosphate 3-kinase catalytic subunit alpha isoform (Homo sapiens), P42336 [H1047L]. Put plainly: Inhibition of human partial length PIK3CA H1047L mutant (R108 to N1068 residues) expressed in mammalian expression system at 10 uM by Kinomescan method relative to control.
Assay [24] has as its target Ribosomal protein S6 kinase alpha-4 (Homo sapiens) (UniProt O75676). Put plainly: Inhibition of wild-type human partial length N-terminal RPS6KA4 kinase domain 1 expressed in bacterial expression system at 10 uM by Kinomescan method relative to control.
The target of assay [25] is STE20/SPS1-related proline-alanine-rich protein kinase (Homo sapiens) (UniProt Q9UEW8). Put plainly: Inhibition of wild-type human partial length STK39 (P43 to I357 residues) expressed in mammalian expression system at 10 uM by Kinomescan method relative to control.
The target in assay [26] is Phosphatidylinositol 3-kinase catalytic subunit type 3 (Homo sapiens) (UniProt Q8NEB9). The assay is described as follows: Inhibition of wild-type human partial length VPS34 (S282 to H879 residues) expressed in mammalian expression system at 10 uM by Kinomescan method relative to control.

Chain of Ribosomal protein S6 kinase alpha-5 (Homo sapiens) (O75582 whole entry, looked up, the tested form may be a part): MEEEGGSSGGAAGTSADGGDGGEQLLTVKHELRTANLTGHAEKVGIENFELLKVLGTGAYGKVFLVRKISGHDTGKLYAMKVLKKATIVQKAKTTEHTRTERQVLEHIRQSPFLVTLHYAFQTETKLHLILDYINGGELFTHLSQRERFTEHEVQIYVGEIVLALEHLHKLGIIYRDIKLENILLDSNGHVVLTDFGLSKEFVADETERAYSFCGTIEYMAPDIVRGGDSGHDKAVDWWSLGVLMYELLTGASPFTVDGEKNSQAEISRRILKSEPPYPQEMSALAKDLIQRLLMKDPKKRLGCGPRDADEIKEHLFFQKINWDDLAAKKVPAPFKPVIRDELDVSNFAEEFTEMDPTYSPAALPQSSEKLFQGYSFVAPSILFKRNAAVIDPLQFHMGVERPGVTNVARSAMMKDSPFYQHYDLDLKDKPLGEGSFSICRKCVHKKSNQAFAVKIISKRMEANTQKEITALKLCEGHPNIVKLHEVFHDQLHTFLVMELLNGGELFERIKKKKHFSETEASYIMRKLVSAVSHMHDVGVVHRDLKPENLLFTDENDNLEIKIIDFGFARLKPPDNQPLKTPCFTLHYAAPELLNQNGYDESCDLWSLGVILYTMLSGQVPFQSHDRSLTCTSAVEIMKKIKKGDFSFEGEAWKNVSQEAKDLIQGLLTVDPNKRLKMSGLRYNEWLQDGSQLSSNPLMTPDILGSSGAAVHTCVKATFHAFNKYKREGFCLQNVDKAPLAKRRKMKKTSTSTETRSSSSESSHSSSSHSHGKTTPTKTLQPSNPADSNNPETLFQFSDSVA
Chain of Serine/threonine-protein kinase PAK 6 (Homo sapiens) (Q9NQU5 whole entry, looked up, the tested form may be a part): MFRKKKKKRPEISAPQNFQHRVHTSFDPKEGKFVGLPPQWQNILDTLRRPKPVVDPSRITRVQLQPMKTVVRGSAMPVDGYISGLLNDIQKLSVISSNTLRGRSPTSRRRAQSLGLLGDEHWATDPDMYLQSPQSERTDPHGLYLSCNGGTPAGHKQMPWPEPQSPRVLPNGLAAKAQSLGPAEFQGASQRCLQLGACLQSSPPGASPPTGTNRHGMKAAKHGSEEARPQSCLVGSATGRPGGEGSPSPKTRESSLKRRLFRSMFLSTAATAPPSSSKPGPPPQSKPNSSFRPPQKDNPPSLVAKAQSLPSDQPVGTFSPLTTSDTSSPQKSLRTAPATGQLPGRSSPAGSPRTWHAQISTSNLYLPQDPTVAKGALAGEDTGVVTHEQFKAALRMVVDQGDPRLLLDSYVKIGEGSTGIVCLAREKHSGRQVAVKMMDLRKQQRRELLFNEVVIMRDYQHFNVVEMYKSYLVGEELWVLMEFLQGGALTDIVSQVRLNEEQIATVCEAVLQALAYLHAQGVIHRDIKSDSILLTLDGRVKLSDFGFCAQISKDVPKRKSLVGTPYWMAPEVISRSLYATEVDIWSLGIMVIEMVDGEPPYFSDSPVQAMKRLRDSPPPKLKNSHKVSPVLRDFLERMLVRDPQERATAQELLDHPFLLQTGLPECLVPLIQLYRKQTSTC
Chain of Non-receptor tyrosine-protein kinase TYK2 (Homo sapiens) (P29597 whole entry, the tested form may be a part): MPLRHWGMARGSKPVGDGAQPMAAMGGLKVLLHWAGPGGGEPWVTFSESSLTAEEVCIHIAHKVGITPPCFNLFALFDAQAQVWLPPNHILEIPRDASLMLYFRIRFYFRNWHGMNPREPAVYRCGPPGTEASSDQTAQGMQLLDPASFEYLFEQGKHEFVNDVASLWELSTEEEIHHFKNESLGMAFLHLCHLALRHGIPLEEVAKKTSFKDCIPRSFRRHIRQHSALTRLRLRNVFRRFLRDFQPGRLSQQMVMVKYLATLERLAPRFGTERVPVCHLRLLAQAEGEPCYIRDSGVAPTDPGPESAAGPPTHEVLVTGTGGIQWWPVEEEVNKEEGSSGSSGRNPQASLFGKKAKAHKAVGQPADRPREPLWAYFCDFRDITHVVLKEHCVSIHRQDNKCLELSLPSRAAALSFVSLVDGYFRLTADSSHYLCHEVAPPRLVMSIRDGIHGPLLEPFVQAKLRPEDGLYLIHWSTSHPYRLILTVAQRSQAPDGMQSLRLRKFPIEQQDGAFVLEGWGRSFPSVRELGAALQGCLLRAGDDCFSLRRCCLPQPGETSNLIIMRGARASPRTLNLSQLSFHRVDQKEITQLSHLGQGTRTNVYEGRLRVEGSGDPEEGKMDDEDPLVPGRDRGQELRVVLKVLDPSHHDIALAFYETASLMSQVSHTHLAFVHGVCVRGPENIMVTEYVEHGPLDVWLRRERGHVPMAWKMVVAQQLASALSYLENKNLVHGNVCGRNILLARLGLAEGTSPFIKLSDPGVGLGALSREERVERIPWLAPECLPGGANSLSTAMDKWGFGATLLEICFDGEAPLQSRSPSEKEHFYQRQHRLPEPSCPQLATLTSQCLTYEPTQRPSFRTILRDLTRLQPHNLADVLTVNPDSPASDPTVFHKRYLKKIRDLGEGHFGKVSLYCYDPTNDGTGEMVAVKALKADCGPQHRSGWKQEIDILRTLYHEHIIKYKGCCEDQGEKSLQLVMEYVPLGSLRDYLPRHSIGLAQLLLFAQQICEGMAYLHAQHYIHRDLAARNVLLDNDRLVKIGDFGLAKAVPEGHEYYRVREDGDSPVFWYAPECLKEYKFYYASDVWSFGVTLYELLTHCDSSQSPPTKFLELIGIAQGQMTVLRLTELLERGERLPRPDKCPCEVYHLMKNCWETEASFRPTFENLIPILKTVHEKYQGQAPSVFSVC
Chain of MAP/microtubule affinity-regulating kinase 4 (Homo sapiens) (Q96L34 whole entry, the tested form may be a part, canonical isoform): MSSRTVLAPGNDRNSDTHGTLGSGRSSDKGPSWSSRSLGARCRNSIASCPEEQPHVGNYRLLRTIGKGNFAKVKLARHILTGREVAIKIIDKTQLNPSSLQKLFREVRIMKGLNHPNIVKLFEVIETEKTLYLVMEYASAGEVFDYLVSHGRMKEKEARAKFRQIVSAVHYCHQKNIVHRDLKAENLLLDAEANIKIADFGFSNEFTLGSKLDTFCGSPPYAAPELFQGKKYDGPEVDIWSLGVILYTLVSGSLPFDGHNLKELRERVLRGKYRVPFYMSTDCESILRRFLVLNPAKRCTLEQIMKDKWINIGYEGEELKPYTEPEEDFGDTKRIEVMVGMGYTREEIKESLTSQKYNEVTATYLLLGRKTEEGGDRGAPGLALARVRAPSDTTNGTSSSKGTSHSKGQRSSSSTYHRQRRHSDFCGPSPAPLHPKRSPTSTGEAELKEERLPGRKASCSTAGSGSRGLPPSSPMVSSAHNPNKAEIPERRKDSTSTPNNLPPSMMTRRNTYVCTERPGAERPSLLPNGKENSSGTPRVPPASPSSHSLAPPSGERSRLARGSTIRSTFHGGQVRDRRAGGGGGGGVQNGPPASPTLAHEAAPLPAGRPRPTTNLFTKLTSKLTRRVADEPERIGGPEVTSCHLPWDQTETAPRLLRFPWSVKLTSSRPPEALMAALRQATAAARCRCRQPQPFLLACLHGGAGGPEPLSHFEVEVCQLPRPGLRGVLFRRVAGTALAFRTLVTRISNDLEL
Chain of G protein-coupled receptor kinase 3 (Homo sapiens) (P35626 whole entry, the tested form may be a part): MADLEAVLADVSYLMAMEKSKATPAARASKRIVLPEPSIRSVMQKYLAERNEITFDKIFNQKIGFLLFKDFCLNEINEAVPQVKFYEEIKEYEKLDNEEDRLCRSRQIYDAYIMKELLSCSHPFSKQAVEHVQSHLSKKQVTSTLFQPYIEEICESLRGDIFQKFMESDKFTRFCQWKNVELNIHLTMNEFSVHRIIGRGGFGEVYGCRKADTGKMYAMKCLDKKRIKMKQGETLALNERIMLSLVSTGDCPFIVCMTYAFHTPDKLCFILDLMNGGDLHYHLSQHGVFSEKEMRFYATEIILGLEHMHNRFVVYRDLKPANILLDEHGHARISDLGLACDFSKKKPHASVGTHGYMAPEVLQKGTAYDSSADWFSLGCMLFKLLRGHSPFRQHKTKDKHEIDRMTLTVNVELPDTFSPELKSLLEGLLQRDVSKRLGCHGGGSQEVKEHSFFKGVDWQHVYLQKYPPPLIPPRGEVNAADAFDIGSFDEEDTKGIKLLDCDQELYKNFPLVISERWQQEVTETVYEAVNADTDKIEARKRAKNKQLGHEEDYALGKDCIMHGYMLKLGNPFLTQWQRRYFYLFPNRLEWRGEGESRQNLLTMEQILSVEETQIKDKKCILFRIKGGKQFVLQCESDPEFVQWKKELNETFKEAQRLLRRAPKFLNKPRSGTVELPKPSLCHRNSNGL
Chain of Serine/threonine-protein kinase B-raf (Homo sapiens), P15056 [V600E] (P15056 whole entry V600E, the tested form may be a part): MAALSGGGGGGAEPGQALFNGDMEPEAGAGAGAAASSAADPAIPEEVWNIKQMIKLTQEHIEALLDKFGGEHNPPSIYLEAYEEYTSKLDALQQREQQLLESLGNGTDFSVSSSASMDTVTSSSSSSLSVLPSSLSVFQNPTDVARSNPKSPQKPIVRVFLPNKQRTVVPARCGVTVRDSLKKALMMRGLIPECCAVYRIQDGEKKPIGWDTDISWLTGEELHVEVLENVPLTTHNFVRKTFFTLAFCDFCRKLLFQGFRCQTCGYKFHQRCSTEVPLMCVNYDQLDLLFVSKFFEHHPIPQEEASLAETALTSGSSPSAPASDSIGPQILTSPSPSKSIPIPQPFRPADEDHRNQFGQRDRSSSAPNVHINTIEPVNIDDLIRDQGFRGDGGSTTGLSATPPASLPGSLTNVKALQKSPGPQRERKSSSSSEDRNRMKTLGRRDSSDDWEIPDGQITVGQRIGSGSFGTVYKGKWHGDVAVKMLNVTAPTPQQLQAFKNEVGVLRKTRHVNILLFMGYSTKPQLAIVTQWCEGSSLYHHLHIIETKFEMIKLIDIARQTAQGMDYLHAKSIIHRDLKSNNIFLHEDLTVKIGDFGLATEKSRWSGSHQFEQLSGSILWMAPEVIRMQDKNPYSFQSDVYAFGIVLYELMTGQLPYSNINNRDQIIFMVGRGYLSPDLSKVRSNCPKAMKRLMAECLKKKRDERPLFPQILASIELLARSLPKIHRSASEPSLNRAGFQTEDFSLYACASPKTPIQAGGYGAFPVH

Consider `O=C(Nc1cccc([C@@H]2CN(c3ncnc4[nH]ccc34)CCN2CCO)c1)Nc1c(F)cccc1N1CCCC1`, for which the inhibition (as a rule, the change of the read-out against control, counted positive when it falls) in [1] is 100%; in assay [2], 72%; in assay [3] it was 92%; in assay [4], 82%; in assay [5], 98%; in assay [6], 75%. Besides, the inhibition in assay [7] is 52%; in [8], 86%; in [9] it was 100%; in assay [10], 99%; in assay [11] it was 96%; in [12], 75%. Moreover, the inhibition in assay [13] came to 0%.
As to `O=C(Nc1cccc([C@H]2CCCN(c3ncnc4[nH]ccc34)C2)c1)Nc1ccccc1N1CCCC1`, the inhibition in assay [14] is 100%; in [15], 43%; in [16] it was 96%; in assay [17], 82%; in [18] it was 96%; in assay [19], 8.3%. Also, the inhibition was found to be 71% in assay [20]; 25% in assay [21]; 87% in assay [22]; 100% in [23]; 77% in [24]; 75% in assay [25]. For the same compound, in assay [26], the inhibition was found to be 52%.
